From ChEMBL document CHEMBL1862790, “Optimisation of fenarimol series for the treatment of Chagas disease”

What was measured:
Trypanosoma cruzi [1] = test: microbe, parasite or virus in culture; type: functional, Tulahuen LacZ, Clone C4; settings: Trypanosoma cruzi, Tulahuen LacZ, Clone C4
Trypanosoma cruzi [2] = test: microbe, parasite or virus in culture; type: functional, organism-based, Tulahuen LacZ, Clone C4; settings: Trypanosoma cruzi, Tulahuen LacZ, Clone C4
[3] = DNDI: Cytotoxicity against L-6 rat myoblasts from skeletal muscle cells; settings: L6 rat skeletal muscle myoblast cells, IC50

Structure (SMILES)	IC90 (Trypanosoma cruzi [1]) [nM]	IC50 (Trypanosoma cruzi [2]) [nM]	IC50 [3] [nM]
CC(C)CS(=O)(=O)N1CCC(NC(c2ccc(C(F)(F)F)cc2)c2cnccn2)CC1 (stereo unspecified)	880	330	> 100000
O=S(=O)(NC(c1ccc(C(F)(F)F)cc1)c1cnccn1)c1ccccc1 (stereo unspecified)	7670	3650	> 100000
O=C(c1ccccc1)N1CCC(NC(c2ccc(C(F)(F)F)cc2)c2cnccn2)CC1 (stereo unspecified)	910	320	> 100000
O=S(=O)(Cc1ccccc1)N1CCC(NC(c2ccc(C(F)(F)F)cc2)c2cnccn2)CC1 (stereo unspecified)	770	210	> 100000
O=C(NC(c1ccc(C(F)(F)F)cc1)c1cnccn1)c1ccc(C(F)(F)F)cc1 (stereo unspecified)	> 1000	590	61200
O=C(C1CCCCC1)N1CCC(NC(c2ccc(C(F)(F)F)cc2)c2cnccn2)CC1 (stereo unspecified)	540	200	83800
CON=C(c1ccc(C(F)(F)F)cc1)c1cccnc1	> 1000	> 1000	70300
CC(C)CC(=O)N1CCC(NC(c2ccc(C(F)(F)F)cc2)c2cnccn2)CC1 (stereo unspecified)	660	270	> 100000
CS(=O)(=O)N1CCC(NC(c2ccc(C(F)(F)F)cc2)c2cnccn2)CC1 (stereo unspecified)	2760	970	> 100000
CC(C)S(=O)(=O)NC(c1ccc(C(F)(F)F)cc1)c1cnccn1 (stereo unspecified)	> 1000	> 1000	> 100000
O=S(=O)(NC(c1ccc(C(F)(F)F)cc1)c1cnccn1)c1ccc(Cl)cc1 (stereo unspecified)	> 1000	> 1000	56400
O=C(C1CC1)N1CCC(NC(c2ccc(C(F)(F)F)cc2)c2cnccn2)CC1 (stereo unspecified)	850	470	> 100000
CS(=O)(=O)NC(c1ccc(C(F)(F)F)cc1)c1cnccn1 (stereo unspecified)	> 10000	> 10000	> 100000
O=S(=O)(NC(c1ccc(C(F)(F)F)cc1)c1cnccn1)C1CCCCC1 (stereo unspecified)	> 1000	> 1000	85000
O=S(=O)(C1CCCCC1)N1CCC(NC(c2ccc(C(F)(F)F)cc2)c2cnccn2)CC1 (stereo unspecified)	970	570	62600
CCS(=O)(=O)NC(c1ccc(C(F)(F)F)cc1)c1cnccn1 (stereo unspecified)	> 1000	> 1000	> 100000
O=C(NC(c1ccc(C(F)(F)F)cc1)c1cnccn1)c1ccc(Cl)cc1 (stereo unspecified)	> 1000	860	61800
CC(C)c1ccc(S(=O)(=O)NC(c2ccc(C(F)(F)F)cc2)c2cnccn2)cc1 (stereo unspecified)	> 1000	> 1000	60000
O=S(=O)(Cc1ccccc1)NC(c1ccc(C(F)(F)F)cc1)c1cnccn1 (stereo unspecified)	> 1000	> 1000	> 100000
CN(C)C(=O)NC(c1ccc(C(F)(F)F)cc1)c1cnccn1 (stereo unspecified)	> 1000	> 1000	> 100000
O=S(=O)(NC(c1ccc(C(F)(F)F)cc1)c1cnccn1)c1ccc(C(F)(F)F)cc1 (stereo unspecified)	> 1000	> 1000	59900
CC(C)(C)OC(=O)NC1CCN(C(c2ccc(C(F)(F)F)cc2)c2cnccn2)CC1 (stereo unspecified)	400	160	56700
O=S(=O)(c1ccccc1)N1CCC(NC(c2ccc(C(F)(F)F)cc2)c2cnccn2)CC1 (stereo unspecified)	320	170	> 100000
O=S(=O)(c1ccc(Cl)cc1)N1CCC(NC(c2ccc(C(F)(F)F)cc2)c2cnccn2)CC1 (stereo unspecified)	910	330	> 100000
O=C(NC(c1ccc(C(F)(F)F)cc1)c1cnccn1)c1ccccc1 (stereo unspecified)	> 1000	> 1000	> 100000
CC(=O)N1CCC(NC(c2ccc(C(F)(F)F)cc2)c2cnccn2)CC1 (stereo unspecified)	7810	3050	> 100000
CC(C)CS(=O)(=O)NC(c1ccc(C(F)(F)F)cc1)c1cnccn1 (stereo unspecified)	> 1000	> 1000	> 100000
